# Experimental data reported in the supplement of paper PMC6045584.
# ± gives the standard deviation of the averaged measurements.
# What was measured:
# ERLOTINIB = compound: C#Cc1cccc(Nc2ncnc3cc(OCCOC)c(OCCOC)cc23)c1 [ERLOTINIB]; assay: surviving fraction relative to DMSO-only wells; higher = less growth inhibition; conditions: exposure time: 5 days
# Outline: (§1)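 Lines were retained only if, across three screens, replicate Pearson r was >0.7 and median Z' was >0.3. Viability was measured as CellTiter-Glo luminescence and reported as surviving fraction relative to the median of DMSO-only wells. Readings followed 10 minutes at room temperature, after log-phase tumour cells seeded at 250–500 per well in 384-well plates had been exposed, from 24 hours after seeding, continuously for five days to inhibitors at 0.5, 1, 5, 10, 50, 100, 500 and 1000 nM.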
# MK0752 = compound: O=C(O)CC[C@H]1CC[C@@](c2cc(F)ccc2F)(S(=O)(=O)c2ccc(Cl)cc2)CC1 [MK0752]; assay: as above; conditions: exposure time: 5 days
# Outline: as §1
Test System,surviving fraction (ERLOTINIB; 1 nM),surviving fraction (ERLOTINIB; 5 nM),surviving fraction (ERLOTINIB; 10 nM),surviving fraction (ERLOTINIB; 50 nM),surviving fraction (ERLOTINIB; 500 nM),surviving fraction (ERLOTINIB; 1000 nM),surviving fraction (MK0752; 0.5 nM),surviving fraction (MK0752; 1 nM),surviving fraction (MK0752; 5 nM),surviving fraction (MK0752; 10 nM),surviving fraction (MK0752; 50 nM),surviving fraction (MK0752; 100 nM),surviving fraction (MK0752; 500 nM),surviving fraction (MK0752; 1000 nM),surviving fraction (ERLOTINIB; 0.5 nM),surviving fraction (ERLOTINIB; 100 nM)
HOSMNG BONE,1 ± 0.041,0.915 ± 0.044,0.947 ± 0.078,0.963 ± 0.1,1.1 ± 0.064,0.957 ± 0.044,0.936 ± 0.023,1.02 ± 0.037,0.959 ± 0.052,0.981 ± 0.046,1.05 ± 0.028,1.05 ± 0.029,1.06 ± 0.061,1.04 ± 0.024,–,–
CASKI CERVIX,0.856 ± 0.053,–,0.8153 ± 0.0021,0.717 ± 0.049,0.336 ± 0.013,0.239 ± 0.018,0.896 ± 0.038,0.973 ± 0.061,1.01 ± 0.047,0.952 ± 0.03,1.08 ± 0.045,1.09 ± 0.061,0.987 ± 0.054,0.943 ± 0.057,0.908 ± 0.099,0.547 ± 0.031
HOS BONE,–,1.03 ± 0.028,1.03 ± 0.022,–,1.03 ± 0.038,0.98 ± 0.046,1.03 ± 0.026,1.02 ± 0.037,1.058 ± 0.01,1.04 ± 0.016,1.1 ± 0.024,1.1 ± 0.035,1.03 ± 0.046,1.1 ± 0.023,1.038 ± 0.0011,1.05 ± 0.0058
HS578T BREAST,1.4 ± 0.32,1.21 ± 0.22,1.23 ± 0.063,1.33 ± 0.21,1.28 ± 0.23,1.18 ± 0.12,1.02 ± 0.061,0.87 ± 0.15,0.883 ± 0.11,1.01 ± 0.11,0.946 ± 0.046,0.9 ± 0.056,0.833 ± 0.11,0.936 ± 0.12,1.18 ± 0.052,1.32 ± 0.16
HT1080 SOFT TISSUE,1.05 ± 0.032,1.06 ± 0.027,1.05 ± 0.026,1.024 ± 0.004,1.07 ± 0.066,1.03 ± 0.077,0.997 ± 0.018,1.02 ± 0.034,1.04 ± 0.026,1 ± 0.051,0.948 ± 0.019,1.02 ± 0.04,0.984 ± 0.0089,0.989 ± 0.029,–,1.02 ± 0.022
SUM44 BREAST,1.19 ± 0.29,1.28 ± 0.4,1.21 ± 0.26,1.34 ± 0.49,1.39 ± 0.53,1.29 ± 0.38,0.998 ± 0.06,0.992 ± 0.035,0.983 ± 0.033,1.015 ± 0.0072,1.04 ± 0.051,1.09 ± 0.025,1.02 ± 0.031,1.05 ± 0.03,1.31 ± 0.45,1.32 ± 0.36
OSHN BONE,1.1 ± 0.016,1.1 ± 0.026,1.07 ± 0.029,–,1.161 ± 0.001,1.1173 ± 0.0011,1.12 ± 0.034,1.14 ± 0.035,1.11 ± 0.018,1.11 ± 0.018,1.11 ± 0.034,1.13 ± 0.018,1.12 ± 0.02,1.09 ± 0.017,1.07 ± 0.029,1.163 ± 0.0072
PCI30 HEADNECK,–,1.12 ± 0.066,1.07 ± 0.078,–,0.538 ± 0.036,0.508 ± 0.029,1.02 ± 0.12,1.04 ± 0.12,1.09 ± 0.057,1.1 ± 0.05,1.06 ± 0.076,1.08 ± 0.092,1.03 ± 0.047,1.04 ± 0.018,1.05 ± 0.12,0.951 ± 0.1
MFM223 BREAST,1.5 ± 0.64,1.49 ± 0.59,1.48 ± 0.48,1.16 ± 0.13,1.22 ± 0.052,1.16 ± 0.033,1.21 ± 0.047,1.14 ± 0.13,1.16 ± 0.048,1.155 ± 0.0068,1.19 ± 0.03,1.23 ± 0.016,1.19 ± 0.1,1.19 ± 0.067,1.44 ± 0.48,1.2 ± 0.039
NOS1 BONE,–,1.24 ± 0.15,1.18 ± 0.075,1.33 ± 0.045,0.827 ± 0.16,0.561 ± 0.011,1.08 ± 0.058,1.19 ± 0.087,1.16 ± 0.12,1.27 ± 0.068,1.16 ± 0.042,1.28 ± 0.23,1.05 ± 0.083,1.08 ± 0.032,1.22 ± 0.035,1.14 ± 0.094
HCC1806 BREAST,1.1 ± 0.067,1.13 ± 0.056,1.15 ± 0.061,1.2 ± 0.042,0.656 ± 0.069,0.623 ± 0.025,0.974 ± 0.05,1.15 ± 0.15,1.23 ± 0.1,1.21 ± 0.086,1.28 ± 0.043,1.23 ± 0.14,1.19 ± 0.075,1.25 ± 0.025,1.04 ± 0.062,1.12 ± 0.037
SG31 HEADNECK,1.29 ± 0.13,1.03 ± 0.11,0.863 ± 0.092,1.08 ± 0.18,0.716 ± 0.2,0.667 ± 0.21,1.16 ± 0.18,1.07 ± 0.14,1.02 ± 0.2,0.991 ± 0.21,0.881 ± 0.14,0.963 ± 0.099,1.04 ± 0.17,1.11 ± 0.095,1.29 ± 0.38,0.762 ± 0.059
HMLE3 BREAST,–,1.1 ± 0.038,1.07 ± 0.026,–,0.976 ± 0.15,0.916 ± 0.013,0.958 ± 0.049,1.06 ± 0.039,1.08 ± 0.024,1.06 ± 0.062,0.999 ± 0.086,1.02 ± 0.066,0.979 ± 0.1,0.978 ± 0.069,1.07 ± 0.021,1.17 ± 0.077
MDAMB361 BREAST,0.849 ± 0.05,0.83 ± 0.037,0.869 ± 0.011,–,0.913 ± 0.091,0.827 ± 0.033,0.833 ± 0.044,0.904 ± 0.077,0.873 ± 0.044,0.851 ± 0.084,0.893 ± 0.06,0.91 ± 0.064,0.884 ± 0.056,0.825 ± 0.073,0.873 ± 0.095,–
A549 LUNG,1.06 ± 0.026,1.06 ± 0.027,1.056 ± 0.0021,1.05 ± 0.022,–,1.03 ± 0.029,1.02 ± 0.053,1.03 ± 0.043,1.06 ± 0.059,1.02 ± 0.062,1.06 ± 0.054,1.09 ± 0.061,1.07 ± 0.063,1.1 ± 0.038,–,–
VP229 BREAST,1.21 ± 0.12,1.17 ± 0.14,1.1 ± 0.086,1.06 ± 0.091,0.568 ± 0.048,0.413 ± 0.06,1.39 ± 0.087,1.15 ± 0.2,1.13 ± 0.092,1.17 ± 0.07,1.1 ± 0.2,1.05 ± 0.14,1.01 ± 0.14,0.901 ± 0.084,1.05 ± 0.087,0.825 ± 0.048
MDAMB436 BREAST,1.08 ± 0.073,1.07 ± 0.091,1.05 ± 0.15,1.05 ± 0.14,0.932 ± 0.066,0.811 ± 0.045,0.928 ± 0.052,0.895 ± 0.12,0.885 ± 0.051,0.901 ± 0.097,1.02 ± 0.13,0.881 ± 0.08,0.897 ± 0.062,0.856 ± 0.036,0.987 ± 0.03,0.941 ± 0.049
